Values belong to the compound of their own block, whether it stands above or below them. The source made the active and inactive calls. No cut-off for these calls is given here.
Tests used:
[1] = target: T1, Sphingosine 1-phosphate receptor 1 (Homo sapiens, UniProt P21453); test: Induction of human GFP-tagged chimeric S1P1R internalization in human U2Os cells by fluorescence microscopy; type: cell-based
[2] = target: T1, Sphingosine 1-phosphate receptor 1; test: Induction of human GFP-tagged chimeric S1P1R internalization in human U2Os cells by fluorescence microscopy relative to 1-(4-(6-benzylbenzofuran-2-yl)-3-fluorobenzyl)azetidine-3-carboxylic acid; type: cell-based
[3] = target: T2, Sphingosine 1-phosphate receptor 3 (Homo sapiens, UniProt Q99500); test: Agonist activity at human S1P3R expressed in CHO cells by Ca(2+) mobilization assay; type: functional, cell-based
T2 sequence (Q99500 whole entry): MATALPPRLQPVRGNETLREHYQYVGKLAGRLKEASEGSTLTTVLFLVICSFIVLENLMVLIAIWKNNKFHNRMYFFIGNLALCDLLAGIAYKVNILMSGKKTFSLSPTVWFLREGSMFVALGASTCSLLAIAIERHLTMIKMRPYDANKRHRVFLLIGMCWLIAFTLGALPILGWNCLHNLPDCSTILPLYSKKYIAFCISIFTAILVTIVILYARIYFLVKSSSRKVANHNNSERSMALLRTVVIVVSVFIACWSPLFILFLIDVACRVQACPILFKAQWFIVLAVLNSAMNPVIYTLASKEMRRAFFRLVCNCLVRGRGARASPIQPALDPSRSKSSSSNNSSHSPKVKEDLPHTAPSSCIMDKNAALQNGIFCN

[4] = target: T2, Sphingosine 1-phosphate receptor 3; test: Agonist activity at human S1P3R expressed in CHO cells by Ca(2+) mobilization assay relative to S1P; type: functional, cell-based; set-up: concentration or dose not given beside the values
Rattus norvegicus [5] = test: Lymphopenic activity in Lewis rat assessed as reduction in blood lymphocyte counts at 1 mg/kg, po administered as single dose measured 24 hrs post dose; type: functional, organism-based; set-up: dose 1 mg/kg
[6] = target: T3, Sphingosine 1-phosphate receptor 5 (Homo sapiens, UniProt Q9H228); test: Agonist activity at human S1P5R expressed in CHO cells by Ca(2+) mobilization assay; type: functional, cell-based
T3 sequence (Q9H228 whole entry): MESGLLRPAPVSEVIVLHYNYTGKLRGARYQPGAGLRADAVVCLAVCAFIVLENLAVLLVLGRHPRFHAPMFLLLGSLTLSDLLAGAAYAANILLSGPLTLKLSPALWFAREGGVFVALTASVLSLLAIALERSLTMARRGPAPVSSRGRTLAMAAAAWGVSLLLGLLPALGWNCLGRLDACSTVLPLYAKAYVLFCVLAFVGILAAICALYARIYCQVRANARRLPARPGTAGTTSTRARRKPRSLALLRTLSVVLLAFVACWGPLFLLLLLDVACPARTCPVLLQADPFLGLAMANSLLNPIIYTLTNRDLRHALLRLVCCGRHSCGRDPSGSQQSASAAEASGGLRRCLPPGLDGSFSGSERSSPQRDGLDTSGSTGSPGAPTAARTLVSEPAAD

[7] = target: T3, Sphingosine 1-phosphate receptor 5; test: Agonist activity at human S1P5R expressed in CHO cells by Ca(2+) mobilization assay relative to control; type: functional, cell-based
[8] = target: Sphingosine 1-phosphate receptor 2 (Homo sapiens) (UniProt O95136); test: Agonist activity at human S1P2R expressed in CHO cells by Ca(2+) mobilization assay; type: functional, cell-based
Sphingosine 1-phosphate receptor 2 (Homo sapiens), sequence (O95136 whole entry): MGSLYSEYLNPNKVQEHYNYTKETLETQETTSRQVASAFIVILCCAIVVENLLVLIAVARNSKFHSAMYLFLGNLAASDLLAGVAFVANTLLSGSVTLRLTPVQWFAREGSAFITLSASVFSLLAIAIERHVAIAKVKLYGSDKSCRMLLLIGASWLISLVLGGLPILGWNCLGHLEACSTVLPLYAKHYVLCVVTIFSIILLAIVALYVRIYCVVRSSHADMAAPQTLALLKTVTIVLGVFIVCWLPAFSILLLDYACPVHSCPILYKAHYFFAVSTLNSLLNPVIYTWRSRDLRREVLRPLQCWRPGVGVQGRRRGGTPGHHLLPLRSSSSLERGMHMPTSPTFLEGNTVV

[9] = target: T4, Sphingosine 1-phosphate receptor 4 (Homo sapiens) (UniProt O95977); test: Agonist activity at human S1P4R expressed in CHO cells by Ca(2+) mobilization assay; type: functional, cell-based
T4 sequence (whole entry): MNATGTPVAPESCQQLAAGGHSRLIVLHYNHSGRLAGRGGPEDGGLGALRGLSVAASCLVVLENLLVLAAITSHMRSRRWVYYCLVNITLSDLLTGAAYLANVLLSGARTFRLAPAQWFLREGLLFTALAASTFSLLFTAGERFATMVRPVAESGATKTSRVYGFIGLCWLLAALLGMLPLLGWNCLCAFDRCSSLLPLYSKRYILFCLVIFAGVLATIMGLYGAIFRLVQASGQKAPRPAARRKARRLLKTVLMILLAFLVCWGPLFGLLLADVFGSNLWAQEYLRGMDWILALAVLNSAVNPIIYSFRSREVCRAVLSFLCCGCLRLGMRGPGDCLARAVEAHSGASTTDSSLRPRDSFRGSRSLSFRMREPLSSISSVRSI

Rattus norvegicus [10] = test: Lymphopenic activity in orally dosed Lewis rat assessed as reduction in blood lymphocyte counts measured 24 hrs post dose; type: functional, organism-based
Rattus norvegicus [11] = test: Lymphopenic activity in Lewis rat assessed as reduction in blood lymphocyte counts at 0.03 mg/kg, po administered as single dose measured 24 hrs post dose; type: functional
Rattus norvegicus [12] = test: Lymphopenic activity in Lewis rat assessed as reduction in blood lymphocyte counts at 0.1 mg/kg, po administered as single dose measured 24 hrs post dose; type: functional
[13] = Clearance in Sprague-Dawley rat at 1 mg/kg, iv or 2 mg/kg, po; type: ADME, organism-based; conditions: in vivo
[14] = Volume of distribution at steady state in Sprague-Dawley rat at 1 mg/kg, iv or 2 mg/kg, po; type: ADME, organism-based; conditions: in vivo, read-out: Vdss
[15] = Half life in Sprague-Dawley rat at 1 mg/kg, iv or 2 mg/kg, po; type: ADME, organism-based; conditions: in vivo
[16] = Mean residence time in Sprague-Dawley rat at 1 mg/kg, iv or 2 mg/kg, po; type: ADME, organism-based; conditions: in vivo
[17] = Oral bioavailability in Sprague-Dawley rat 2 mg/kg; type: ADME, organism-based; conditions: in vivo
[18] = Clearance in Beagle dog at 1 mg/kg, iv or 1 mg/kg, po; type: ADME, organism-based, Canis lupus familiaris; conditions: in vivo
[19] = Volume of distribution at steady state in Beagle dog at 1 mg/kg, iv or 1 mg/kg, po; type: ADME, organism-based, Canis lupus familiaris; conditions: in vivo, read-out: Vdss
[20] = Half life in Beagle dog at 1 mg/kg, iv or 1 mg/kg, po; type: ADME, organism-based, Canis lupus familiaris; conditions: in vivo
[21] = Mean residence time in Beagle dog at 1 mg/kg, iv or 1 mg/kg, po; type: ADME, organism-based, Canis lupus familiaris; conditions: in vivo
[22] = Oral bioavailability in Beagle dog 1 mg/kg; type: ADME, organism-based, Canis lupus familiaris; conditions: in vivo
[23] = Volume of distribution at steady state in cynomolgus monkey at 1 mg/kg, iv or 1 mg/kg, po; type: ADME, organism-based, Macaca fascicularis; conditions: in vivo, read-out: Vdss
[24] = Half life in cynomolgus monkey at 1 mg/kg, iv or 1 mg/kg, po; type: ADME, organism-based, Macaca fascicularis; conditions: in vivo
[25] = Mean residence time in cynomolgus monkey at 1 mg/kg, iv or 1 mg/kg, po; type: ADME, organism-based, Macaca fascicularis; conditions: in vivo
[26] = Oral bioavailability in cynomolgus monkey 1 mg/kg; type: ADME, organism-based, Macaca fascicularis; conditions: in vivo
Rattus norvegicus [27] = test: Toxicity in telemetered Sprague-Dawley rat assessed as change in mean arterial pressure at 10 mg/kg, po; type: organism-based, Artery; set-up: dose 10 mg/kg, route oral; conditions: in vivo
Rattus norvegicus [28] = test: Toxicity in telemetered Sprague-Dawley rat assessed as effect on heart rate at 10 mg/kg, po; type: organism-based; set-up: dose 10 mg/kg, route oral; conditions: in vivo
[29] = Inhibition of Cytochrome P450; type: ADME
[30] = Mutagenic activity in Salmonella Typhimurium by Ames assay; type: toxicity; conditions: salmonella enterica subsp. enterica serovar typhimurium
[31] = target: Voltage-gated inwardly rectifying potassium channel KCNH2 (Homo sapiens, UniProt Q12809); test: Inhibition of human ERG at 2.3 uM by patch-clamp method
Voltage-gated inwardly rectifying potassium channel KCNH2, sequence (Q12809 whole entry): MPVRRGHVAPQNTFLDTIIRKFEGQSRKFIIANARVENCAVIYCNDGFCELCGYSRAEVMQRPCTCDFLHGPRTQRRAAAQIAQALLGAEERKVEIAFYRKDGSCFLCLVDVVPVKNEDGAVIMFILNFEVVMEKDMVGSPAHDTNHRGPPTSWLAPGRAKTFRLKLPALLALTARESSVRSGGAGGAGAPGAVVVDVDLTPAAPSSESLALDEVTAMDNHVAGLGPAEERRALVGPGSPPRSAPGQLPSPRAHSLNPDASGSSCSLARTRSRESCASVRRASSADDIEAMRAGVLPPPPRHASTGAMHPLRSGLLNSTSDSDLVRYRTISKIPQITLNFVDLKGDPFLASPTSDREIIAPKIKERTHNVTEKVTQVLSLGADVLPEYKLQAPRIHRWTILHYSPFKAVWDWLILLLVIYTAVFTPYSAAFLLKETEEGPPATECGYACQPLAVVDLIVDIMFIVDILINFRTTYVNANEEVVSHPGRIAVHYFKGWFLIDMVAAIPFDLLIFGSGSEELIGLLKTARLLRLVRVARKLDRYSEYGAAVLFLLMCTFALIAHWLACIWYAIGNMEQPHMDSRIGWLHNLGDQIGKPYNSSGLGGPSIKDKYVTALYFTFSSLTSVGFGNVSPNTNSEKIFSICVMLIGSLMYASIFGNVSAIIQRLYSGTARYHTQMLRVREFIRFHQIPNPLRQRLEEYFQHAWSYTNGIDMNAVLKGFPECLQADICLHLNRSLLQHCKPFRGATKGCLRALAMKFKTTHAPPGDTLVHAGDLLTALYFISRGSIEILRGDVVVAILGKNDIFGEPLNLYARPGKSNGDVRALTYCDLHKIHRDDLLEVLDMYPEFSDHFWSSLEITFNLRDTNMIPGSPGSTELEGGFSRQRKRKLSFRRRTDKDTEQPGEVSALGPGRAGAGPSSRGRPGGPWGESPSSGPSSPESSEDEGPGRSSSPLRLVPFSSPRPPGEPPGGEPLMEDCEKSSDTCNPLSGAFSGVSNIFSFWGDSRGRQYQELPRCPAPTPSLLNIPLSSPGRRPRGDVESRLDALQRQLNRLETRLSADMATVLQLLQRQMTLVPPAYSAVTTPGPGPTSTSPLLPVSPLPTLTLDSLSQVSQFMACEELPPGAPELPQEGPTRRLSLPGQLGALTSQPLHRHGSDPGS

[32] = Clearance in cynomolgus monkey at 1 mg/kg, iv or 1 mg/kg, po; type: ADME, organism-based, Macaca fascicularis; conditions: in vivo
Rattus norvegicus [33] = test: Reduction of disease score in experimental autoimmune encephalitis Lewis rat model of multiple sclerosis at 2 ug/day, po administered at the time of immunization with guinea pig myelin basic protein
Rattus norvegicus [34] = test: Reduction of disease score in experimental autoimmune encephalitis Lewis rat model of multiple sclerosis at 20 ug/day, po administered at the time of immunization with guinea pig myelin basic protein
Rattus norvegicus [35] = test: Induction of delay in onset of disease in experimental autoimmune encephalitis Lewis rat model of multiple sclerosis at 20 ug/day, po administered at the time of immunization with guinea pig myelin basic protein
[36] = target: T2, Sphingosine 1-phosphate receptor 3; test: Agonist activity at human S1P3R expressed in CHO cells at 2.5 uM by Ca(2+) mobilization assay relative to S1P; type: functional, cell-based

T1 sequence (P21453 whole entry): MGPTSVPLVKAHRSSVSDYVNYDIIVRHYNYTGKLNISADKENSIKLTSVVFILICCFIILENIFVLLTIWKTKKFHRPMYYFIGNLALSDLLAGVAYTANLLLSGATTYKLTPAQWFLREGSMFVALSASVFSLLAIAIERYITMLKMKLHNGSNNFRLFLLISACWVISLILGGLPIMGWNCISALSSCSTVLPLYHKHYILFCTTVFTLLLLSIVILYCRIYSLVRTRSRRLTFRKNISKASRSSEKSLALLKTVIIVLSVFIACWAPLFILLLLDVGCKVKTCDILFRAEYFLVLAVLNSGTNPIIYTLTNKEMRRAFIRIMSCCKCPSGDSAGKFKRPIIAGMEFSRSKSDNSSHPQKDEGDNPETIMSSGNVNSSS

SMILES: O=C(O)C1CN(Cc2ccc(-c3nc4cc(Cc5ccccc5)cnc4s3)c(F)c2)C1
EC50 [1]: 138 nM
Efficacy [2]: 125%
EC50 [3]: 2890 nM
Activity [4]: 36%

SMILES: O=C(O)C1CN(Cc2ccc(-c3nc4cnc(Cc5ccccc5)cc4s3)c(F)c2)C1
EC50 [1]: 3980 nM
Efficacy [2]: 77%
EC50 [3]: 5460 nM
Activity [4]: 64%

SMILES: O=C(O)C1CN(Cc2ccc(-c3nc4cc(Cc5ccccc5)ncc4s3)c(F)c2)C1
EC50 [1]: 429 nM
Efficacy [2]: 115%
EC50 [3]: > 25000 nM

SMILES: O=C(O)C1CN(Cc2ccc(-c3nc4ncc(Cc5ccccc5)cc4s3)c(F)c2)C1
EC50 [1]: 1600 nM
Efficacy [2]: 75%
EC50 [3]: > 25000 nM

SMILES: O=C(O)C1CN(Cc2ccc(-c3nc4cc(Cc5ccccc5)ccc4s3)c(F)c2)C1
Efficacy [2]: 102%
Activity [4]: 24%
inhibition (Rattus norvegicus [5]): Active

SMILES: O=C(O)C1CN(Cc2ccc(-c3nc4ccc(C5(c6ccccc6)CCC5)nc4s3)c(F)c2)C1
EC50 [1]: 119 nM
Efficacy [2]: 124%
EC50 [3]: 1310 nM
Activity [4]: 68%

SMILES: O=C(O)C1CN(Cc2ccc(-c3nc4ccc(C5(c6ccccc6)CC5)nc4s3)c(F)c2)C1
Efficacy [2]: 98%
Activity [4]: 26%
EC50 [6]: 29 nM
Efficacy [7]: 50%
Activity [8]: inactive
Activity [9]: inactive
inhibition (Rattus norvegicus [10]): Dose-dependent effect
inhibition in vivo at 0.03 mg/kg (Rattus norvegicus [11]): 45%
inhibition in vivo at 0.1 mg/kg (Rattus norvegicus [12]): 65%
clearance [13]: 3 mL/min/kg
Vd [14]: 1.8 L/kg
half-life [15]: 5.9 h
MRT [16]: 10 h
bioavailability [17]: 64%
clearance [18]: 1.18 mL/min/kg
Vd [19]: 1.2 L/kg
half-life [20]: 38 h
MRT [21]: 17 h
bioavailability [22]: 41%
Vd [23]: 2.3 L/kg
half-life [24]: 24 h
MRT [25]: 4.7 h
bioavailability [26]: 34%
Activity (Rattus norvegicus [27]): Non-toxic
Activity (Rattus norvegicus [28]): Non-toxic
inhibition (INH) [29]: Not Active
Activity [30]: Non-toxic
inhibition (INH) [31]: Not Active
clearance [32]: 8.33 mL/min/kg
Activity (Rattus norvegicus [33]): inactive
Activity (Rattus norvegicus [34]): Active
Activity (Rattus norvegicus [35]): Active

SMILES: O=C(O)C1CN(Cc2ccc(-c3nc4ccc(Cc5ccccc5)cc4s3)c(F)c2)C1
EC50 [1]: 221 nM
EC50 [3]: 3470 nM
Activity [4]: 50%

SMILES: O=C(O)C1CN(Cc2ccc(-c3nc4nc(Cc5ccccc5)ccc4s3)c(F)c2)C1
EC50 [1]: 144 nM
Efficacy [2]: 106%
EC50 [3]: 10100 nM
Activity [4]: 63%

SMILES: O=C(O)C1CN(Cc2ccc(-c3nc4ccc(Cc5ccccc5)nc4s3)c(F)c2)C1
EC50 [1]: 199 nM
Efficacy [2]: 92%
EC50 [3]: 478 nM
Activity [4]: 94%

Continued by falling EC50 [1], values first:

EC50 [1]: 38 nM
Efficacy [2]: 87%
EC50 [3]: 996 nM
Activity [4]: 45%
SMILES: C[C@H](c1ccccc1)c1ccc2nc(-c3ccc(CN4CC(C(=O)O)C4)cc3F)sc2n1

EC50 [1]: 38 nM
Efficacy [2]: 93%
EC50 [3]: 4670 nM
Activity [4]: 56%
SMILES: O=C(O)C1CN(Cc2ccc(-c3nc4ccc(C5(c6ccccc6)CC5)cc4s3)c(F)c2)C1

EC50 [1]: 35 nM
Efficacy [2]: 99%
EC50 [3]: 877 nM
Activity [4]: 44%
SMILES: C[C@@H](c1ccccc1)c1ccc2nc(-c3ccc(CN4CC(C(=O)O)C4)cc3F)sc2n1

EC50 [1]: 33 nM
Efficacy [2]: 103%
EC50 [3]: 2510 nM
Activity [4]: 64%
SMILES: CC(C)(c1ccccc1)c1ccc2nc(-c3ccc(CN4CC(C(=O)O)C4)cc3F)sc2n1

EC50 [1]: 33 nM
Efficacy [2]: 108%
EC50 [3]: 836 nM
Activity [4]: 41%
SMILES: O=C(O)C1CN(Cc2ccc(-c3nc4ccc(C5(c6ccccc6)CCCCC5)nc4s3)c(F)c2)C1

EC50 [1]: 26 nM
Efficacy [2]: 76%
Efficacy [36]: 12%
SMILES: O=C(O)C1CN(Cc2ccc(-c3nc4ccc(C5(c6ccccc6)CCCC5)nc4s3)c(F)c2)C1

Source: ChEMBL document CHEMBL1649108, “Discovery of AMG 369, a Thiazolo[5,4-b]pyridine Agonist of S1P1 and S1P5” (ACS Med Chem Lett, 2011)
